Experimental data as given in US20210046071A1, “TETRACYCLIC COMPOUNDS AND THEIR SALTS, COMPOSITIONS, AND METHODS FOR THEIR USE” (Senhwa Biosciences, Inc., priority 2019, published 2021).
Where two headings read alike, the source gives them in different places.

Assay: Pharmacokinetic studies in human, Compound I in plasma by LC/MS/MS
Format: in vivo
Details: human, plasma, iv; for AUC(0-inf): read-out: AUC∞; for half-life: read-out: T1/2 (converted)
Description: Pharmacokinetic studies and dose escalation studies were conducted in adult patients with metastatic, recurrent, locally, advanced, or unresectable solid malignancy (patients with histologically and/or cytologically confirmed solid malignancy), who received prior anti-cancer treatment(s) until disease progression, at 10 different dose levels of Compound I. Groups 1-7 were administered intravenously on days 1 and 8 of a 4-week cycle at 50, 100, 150, 200, 250, 325, and 475 mg/m^2 (lyophilized formulation), respectively. Groups 8-10 were administered intravenously on days 1,8, and 15 of a 4-week cycle at 325, 475, and 650 mg/m^2 (lyophilized formulation), respectively. Each patient received each dose over 1 hour by IV infusion on days described above.
They lyophilized formulation was reconstituted with 5% glucose in sterile water, or similar biologically acceptable fluid, for IV infusion.
For patients in Groups 1-7, blood samples were typically collected at Day 1 at pre-infusion (t=−1 h), during infusion at about 30 minutes (t=−0.5 h), immediately post infusion (t=0 h), 30 min post-infusion, 1 h post-infusion, 2 h post-infusion, 4 h post-infusion, and 6 h post-infusion, as well as at about 24 h post-infusion, 48 h post-infusion, and 72 h post-infusion. On Day 8, blood samples were typically collected at pre-infusion (t=−1 h), during infusion at about 30 minutes (t=−0.5 h), immediately post infusion (t=0 h), 30 min post-infusion, 1 h post-infusion, 2 h post-infusion, 4 h post-infusion, and 6 h post-infusion, as well as at about 24 h post-infusion, and 168 h post-infusion (Day 15).
For patients in Groups 8-10, blood samples were typically collected at Day 1 at pre-infusion (t=−1 h), during infusion at about 30 minutes (t=−0.5 h), immediately post infusion (t=0 h), 30 min post-infusion, 1 h post-infusion, 2 h post-infusion, 4 h post-infusion, and 6 h post-infusion, as well as at about 24 h post-infusion, 48 h post-infusion, and 72 h post-infusion. On Day 8, blood samples were typically collected at pre-infusion (t=−1 h). On Day 15, blood samples were typically collected at pre-infusion (t=−1 h), during infusion at about 30 minutes (t=−0.5 h), immediately post infusion (t=0 h), 30 min post-infusion, 1 h post-infusion, 2 h post-infusion, 4 h post-infusion, and 6 h post-infusion, as well as at about 24 h post-infusion, and 168 h post-infusion (Day 22).
Levels of Compound I in patient's plasma were analyzed by liquid chromatography tandem mass spectrometry (LC/MS/MS) assay. Experimental procedures of the validated methods are summarized below. The pharmacokinetic parameters after first dose and second dose for Groups 1-7 and after first dose and third dose for Groups 8-10 are shown in Tables 2A-2J. In Tables 2A-2J: SD=standard deviation; Cmax=maximum observed concentration; D=dose; Tmax=time to maximum observed concentration; T1/2=elimination half-life; Vd=volume of distribution; CL=drug clearance; and AUC∞=area under the concentration-time curve from time zero to infinity (total exposure).
The concentrations of Compound I in human plasma samples collected from subjects of as discussed above. Compound I concentrations in plasma samples were measured based on 9 levels of calibration standards from 5.00 to 5000 ng/mL, and 3 levels of QC at 15.0 ng/mL (low), 2500 ng/mL (mid), and 4000 ng/mL (high).
Two reference standard master stock solutions of Compound I were prepared by dissolving the Compound 1 reference standard with 50:50:0.1 ACN:diH2O:FA (v/v/v) and sonicating for 7 minutes (diH2O=deionized water). The resulting solutions were further diluted with 50:50:0.1 ACN:diH2O:FA (v/v/v) into a series of working stock solutions (WSS) for spiking of Compound I calibration standards and QC samples. The master stock solutions were prepared fresh on the day of assay, or stored at nominal 2° C. to 8° C. for later use. Master stock solutions were used within the stability timeframe. […]

[1] = 150 mg/m2, Group 3, 150 mg/m^2 IV, Day 8, mean, n = 4
[2] = 200 mg/m2, Group 4, 200 mg/m^2 IV, Day 1, mean, n = 4
[3] = 200 mg/m2, Group 4, 200 mg/m^2 IV, Day 8, mean, n = 4
[4] = 250 mg/m2, Group 5, 250 mg/m^2 IV, Day 1, mean, n = 3
[5] = 250 mg/m2, Group 5, 250 mg/m^2 IV, Day 8, mean, n = 3
[6] = 325 mg/m2, Group 6, 325 mg/m^2 IV, Day 1, mean, n = 3
[7] = 325 mg/m2, Group 6, 325 mg/m^2 IV, Day 8, mean, n = 3
[8] = 325 mg/m2, Group 8, 325 mg/m^2 IV, Day 1, mean, n = 3
[9] = 325 mg/m2, Group 8, 325 mg/m^2 IV, Day 1, mean, n = 4
[10] = 325 mg/m2, Group 8, 325 mg/m^2 IV, Day 15, mean, n = 4
[11] = 475 mg/m2, Group 7, 475 mg/m^2 IV, Day 1, mean, n = 3
[12] = 475 mg/m2, Group 7, 475 mg/m^2 IV, Day 8, mean, n = 3
[13] = 475 mg/m2, Group 9, 475 mg/m^2 IV, Day 1, mean, n = 5
[14] = 475 mg/m2, Group 9, 475 mg/m^2 IV, Day 15, mean, n = 4
[15] = 475 mg/m2, Group 9, 475 mg/m^2 IV, Day 15, mean, n = 5
[16] = 650 mg/m2, Group 10, 650 mg/m^2 IV, Day 1, mean, n = 5
[17] = 650 mg/m2, Group 10, 650 mg/m^2 IV, Day 15, mean, n = 5

Structure (SMILES): Cc1cnc(CNC(=O)c2c(=O)c3ccc(N4CCCN(C)CC4)nc3n3c2sc2ccccc23)cn1 [Compound I, 2-(4-Methyl-[1,4]diazepan-1-yl)-5-oxo-5H-7-thia-1,11b-diaza-benzo[c]fluorene-6-carboxylic acid (5-methyl-pyrazin-2-ylmethyl)-amide]
- Tmax [1]: 0.646 h
- Vd [1]: 939 L
- clearance [1]: 203 mL/min
- AUC(0-inf) [1]: 21800 ng·h/mL
- half-life [1]: 59.1 h
- Cmax [2]: 8950 ng/mL
- Tmax [2]: 0.854 h
- Vd [2]: 1700 L
- clearance [2]: 505 mL/min
- AUC(0-inf) [2]: 15100 ng·h/mL
- half-life [2]: 41.9 h
- Cmax [3]: 1180 ng/mL
- Tmax [3]: 1.3 h
- Vd [3]: 2050 L
- clearance [3]: 470 mL/min
- AUC(0-inf) [3]: 16200 ng·h/mL
- half-life [3]: 53.5 h
- Cmax [4]: 1410 ng/mL
- Tmax [4]: 1.19 h
- Vd [4]: 1450 L
- clearance [4]: 348 mL/min
- AUC(0-inf) [4]: 20900 ng·h/mL
- half-life [4]: 47.9 h
- Cmax [5]: 771 ng/mL
- Tmax [5]: 1.2 h
- Vd [5]: 2160 L
- clearance [5]: 258 mL/min
- AUC(0-inf) [5]: 28100 ng·h/mL
- half-life [5]: 96.9 h
- Cmax [6]: 1070 ng/mL
- Tmax [6]: 1.02 h
- Vd [6]: 1930 L
- clearance [6]: 390 mL/min
- AUC(0-inf) [6]: 23500 ng·h/mL
- half-life [6]: 66.9 h
- Cmax [7]: 1040 ng/mL
- Tmax [7]: 0.672 h
- Vd [7]: 2220 L
- clearance [7]: 307 mL/min
- AUC(0-inf) [7]: 29000 ng·h/mL
- half-life [7]: 86.5 h
- Vd [8]: 2320 L
- clearance [8]: 322 mL/min
- AUC(0-inf) [8]: 29100 ng·h/mL
- half-life [8]: 83.4 h
- Cmax [9]: 1140 ng/mL
- Tmax [9]: 0.767 h
- Cmax [10]: 21100 ng/mL
- Tmax [10]: 0.783 h
- Cmax [11]: 1940 ng/mL
- Tmax [11]: 0.861 h
- Vd [11]: 2590 L
- clearance [11]: 418 mL/min
- AUC(0-inf) [11]: 36200 ng·h/mL
- half-life [11]: 81.8 h
- Cmax [12]: 1710 ng/mL
- Tmax [12]: 0.678 h
- Vd [12]: 2430 L
- clearance [12]: 482 mL/min
- AUC(0-inf) [12]: 35400 ng·h/mL
- half-life [12]: 73.8 h
- Cmax [13]: 1750 ng/mL
- Tmax [13]: 1.18 h
- Vd [13]: 2320 L
- clearance [13]: 460 mL/min
- AUC(0-inf) [13]: 36300 ng·h/mL
- half-life [13]: 61.5 h
- Vd [14]: 2570 L
- clearance [14]: 532 mL/min
- AUC(0-inf) [14]: 32500 ng·h/mL
- half-life [14]: 59 h
- Cmax [15]: 2870 ng/mL
- Tmax [15]: 0.737 h
- Cmax [16]: 3080 ng/mL
- Tmax [16]: 0.81 h
- Vd [16]: 3700 L
- AUC(0-inf) [16]: 57500 ng·h/mL
- half-life [16]: 122 h
- Cmax [17]: 4170 ng/mL
- Tmax [17]: 1.05 h
- Vd [17]: 2620 L
- AUC(0-inf) [17]: 62200 ng·h/mL
- half-life [17]: 93.6 h
